Structures can show the parent of a compound that is named as a salt.
Columns and labels:
[1] = system: rat subcutaneous infiltration models; test: Subcutaneous infiltration local anesthetic effect (Von Frey stinging stimulus on back skin); assay type: in vivo; conditions: SD rats
Protocol: SD rats (half male and half female) with a body weight of 190-210 grams were shaved and sterilized on the back, then a circle with a diameter of about 1.5 cm was drawn on one side of the bare back, and 0.5 mL of a drug-containing solution was subcutaneously injected into the skin in the center: normal saline was used as the solvent, 2 mg/mL levobupivacaine hydrochloride, 9 compounds of the present application were selected, at a concentration of 6 mg/mL (the equivalent molar concentration ranged from 8.6 to 10.1 mmol/L according to the corresponding molecular weights of the example compounds), with 10 rats in each group. Von Frey fiber filaments with 100 g strength were bound to a needle for topical skin stimulation. 1 min after drug injection, response of rats to stinging stimulus was tested. The test sites were six different points of the circle of the administration site, and whether behaviors such as skin contraction and avoidance occurred after stimulus was observed and recorded. Three points in the center of the circle and three points on the periphery of the circle were stimulated separately, and the number of occurrences of skin contraction and avoidance behavior was recorded as N/6. In terms of judgment, if there were 4 or more occurrences of avoidance and skin contraction behaviors, it was considered that the drug was ineffective; if there was a reaction on the periphery (≤3) and no reaction (≥1) in the center, it was considered that the drug was still effective; and if there was a reaction only at the points in the center, it was considered that the drug was ineffective. Each compound was tested with 10 rats.
Since the local anesthesia time longer than 72 hours may cause irreversible nerve injury, we subsequently halved (3 mg/mL) the dose of the compounds with the duration of action greater than 72 hours and then conducted an activity test to determine whether the local anesthesia effect could be restored in the skin infiltration models.

sciatic nerve = test: Local anesthetic effect of nerve block (sciatic nerve block model, hot plate test); assay type: in vivo; conditions: rat, single dose 5 mL/Kg through right sciatic nerve, example compounds 6 mg/mL (8.6-10.1 mmol/L), hot plate 50°C; for Duration: levobupivacaine hydrochloride 2 mg/mL, MPE at least 50%
Protocol: Three groups of fully acclimatized rats, one in each group, were given to the example compounds and levobupivacaine hydrochloride positive control, respectively.
Solution preparation: 2 mg/mL levobupivacaine hydrochloride injection: 2.670 mL of 7.5 mg/mL levobupivacaine hydrochloride injection (batch number: 92S0702) was pipetted by a pipette and added into a 10 mL volumetric flask, 0.9% NaCl solution was added until the concave liquid level was flush with the scale line, and the volumetric flask was turned upside down to mix the solution well to prepare 2 mg/ml levobupivacaine hydrochloride injection. 6 mg/mL (the molar concentration calculated from the molecular weight of the example compound ranged from 8.6 to 10.1 mmol/L) example compound solution: 19.80 mg of example compound was accurately weighed and added with 3.3 mL of 0.9% NaCl solution to prepare 6 mg/mL example compound solution.
Each rat was administered or control injected at 5 mL/Kg, in a single dose through right sciatic nerve, and thereafter, the rat was placed on a hot plate of a preheated 50±0.1° C. smart hot plate apparatus. The time required for the occurrence of the behavioral phenomena of avoiding thermal stimuli, such as obvious foot lifting and foot licking on the administered side of the rat was recorded, as the hot incubation period. The allowable maximum value of the hot incubation period was controlled at 60 s. If the rat still has no foot licking after 60 s, the hind foot of the rat was lifted manually to avoid tissue injury or hyperalgesia, and 60 s was taken as the hot incubation period of the rat. After each measurement, the hot plate was wiped in time to remove possible urine and feces, and was dried for subsequent testing.
The results of the hot incubation period were expressed with maximum proportionality effect (MPE) and calculated using the following equation:
[formula] • wherein B represents the basic hot incubation period of rats, P represents the allowable maximum hot incubation period, and C represents the hot incubation period at the detection time point.
It was specified that the tested time below 50% of the maximum proportionality effect was determined to be invalid, and the test was stopped if two consecutive tests were both below 50% of the maximum proportionality effect.

[2] = 0.5 mL subcutaneous on back, compounds 6 mg/mL (8.6-10.1 mmol/L)
[3] = 0.5 mL subcutaneous on back, compounds 6 mg/mL (8.6-10.1 mmol/L), levobupivacaine hydrochloride 2 mg/mL
[4] = subcutaneous on back, compounds 3 mg/mL (4.4-5.1 mmol/L)

CCCC[N+]1(CCCCN2CCCCC2C(=O)Nc2ccc(F)cc2)CCC[C@@H]1C(=O)Nc1c(C)cc(C)cc1C (stereo partly drawn) [Compound 29]
Onset time [1, 2]: 1 min
Duration [1, 3]: 50 h
Duration (sciatic nerve): 24 to 48 h
Onset time (sciatic nerve): 1 min

CCCC[N+]1(CCCCN2CCCCC2C(=O)Nc2ccc(F)cc2)CCC[C@@H]1C(=O)Nc1c(C)cccc1C (stereo partly drawn) [Compound 21]
Onset time [1, 2]: 1 min
Duration [1, 3]: 57 h
Duration (sciatic nerve): 24 to 48 h
Onset time (sciatic nerve): 1 min

CCC[N+]1(CCCCCN2CCCCC2C(=O)Nc2ccc(C)cc2)CCCCC1C(=O)Nc1c(C)cccc1C (stereo not drawn) [Compound 12]
Onset time [1, 2]: 1 min
Duration [1, 3]: 72 to 96 h
Duration [1, 4]: 60 h
Onset time [1, 4]: 1 min
Duration (sciatic nerve): 48 h
Onset time (sciatic nerve): 1 min

CCCC[N+]1(CCCCN2CCCCC2C(=O)Nc2c(C)cccc2C)CCC[C@@H]1C(=O)Nc1c(C)cc(C)cc1C (stereo partly drawn) [Compound 27]
Duration (sciatic nerve): 12 to 24 h
Onset time (sciatic nerve): 1 min

CCCC[N+]1(CCCCN2CCCCC2C(=O)NC2CCCCC2)CCCCC1C(=O)Nc1c(C)cccc1C (stereo not drawn) [Compound 9]
Duration (sciatic nerve): 24 h
Onset time (sciatic nerve): 1 min

CCCC[N+]1(CCCCN2CCCCC2C(=O)Nc2ccc(C(F)(F)F)cc2)CCC[C@@H]1C(=O)Nc1c(C)cccc1C (stereo partly drawn) [Compound 20]
Duration (sciatic nerve): 12 to 24 h
Onset time (sciatic nerve): 1 min

CCCC[N+]1(CCCCN2CCCCC2C(=O)Nc2ccccc2)CCCCC1C(=O)Nc1c(C)cccc1C (stereo not drawn) [Compound 8]
Onset time [1, 2]: 1 min
Duration [1, 3]: 72 to 96 h
Duration [1, 4]: 52 h
Onset time [1, 4]: 1 min
Duration (sciatic nerve): 48 h
Onset time (sciatic nerve): 1 min

CCCC[N+]1(CCCCCN2CCCCC2C(=O)Nc2ccc(F)cc2)CCC[C@@H]1C(=O)Nc1c(C)cc(C)cc1C (stereo partly drawn) [Compound 32]
Duration (sciatic nerve): 12 to 24 h
Onset time (sciatic nerve): 1 min

CCCC[N+]1(CCCCCN2CCCCC2C(=O)Nc2ccc(C)cc2)CCCCC1C(=O)Nc1c(C)cccc1C (stereo not drawn) [Compound 4]
Onset time [1, 2]: 1 min
Duration [1, 3]: 72 to 96 h
Duration [1, 4]: 56 h
Onset time [1, 4]: 1 min
Duration (sciatic nerve): 48 h
Onset time (sciatic nerve): 1 min

CCCC[N+]1(CCCCN2CCCCC2C(=O)Nc2c(C)cccc2C)CCC[C@@H]1C(=O)Nc1c(C)cccc1C (stereo partly drawn) [Compound 17]
Duration (sciatic nerve): 12 to 24 h
Onset time (sciatic nerve): 1 min

CCCC[N+]1(CCCCN2CCCCC2C(=O)Nc2ccc(C)cc2)CCC[C@@H]1C(=O)Nc1c(C)cccc1C (stereo partly drawn) [Compound 18]
Duration (sciatic nerve): 20 h
Onset time (sciatic nerve): 1 min

CCCC[N+]1(CCCCCN2CCCCC2C(=O)Nc2ccc(F)cc2)CCCCC1C(=O)Nc1c(C)cccc1C (stereo not drawn) [Compound 3]
Duration (sciatic nerve): 18 h
Onset time (sciatic nerve): 1 min

CCCC[N+]1(CCCCCN2CCCCC2C(=O)Nc2c(C)cccc2C)CCCCC1C(=O)Nc1c(C)cccc1C (stereo not drawn) [Compound 1]
Onset time [1, 2]: 1 min
Duration [1, 3]: 55 h
Duration (sciatic nerve): 24 h
Onset time (sciatic nerve): 1 min

CCC[N+]1(CCCCCN2CCCCC2C(=O)NC2CCCCC2)CCCCC1C(=O)Nc1c(C)cccc1C (stereo not drawn) [Compound 11]
Duration (sciatic nerve): 11 h
Onset time (sciatic nerve): 1 min

CCCC[N+]1(CCCCCN2CCCCC2C(=O)Nc2ccccc2)CCCCC1C(=O)Nc1c(C)cccc1C (stereo not drawn) [Compound 2]
Duration (sciatic nerve): 15 h
Onset time (sciatic nerve): 1 min

CCCCN1CCCC[C@H]1C(=O)Nc1c(C)cccc1C [Levobupivacaine hydrochloride, reference compound]
Duration [1, 3]: 4 h
Duration [1, 4]: 3 h
Duration (sciatic nerve): 3 h

CCCC[N+]1(CCCCCN2CCCCC2C(=O)Nc2c(C)cccc2C)CCC[C@@H]1C(=O)Nc1c(C)cccc1C (stereo partly drawn) [Compound 22]
Onset time [1, 2]: 1 min
Duration [1, 3]: 60 h
Duration (sciatic nerve): 24 to 48 h
Onset time (sciatic nerve): 1 min

CCCC[N+]1(CCCCCN2CCCCC2C(=O)NC2CCCCC2)CCCCC1C(=O)Nc1c(C)cccc1C (stereo not drawn) [Compound 6]
Duration (sciatic nerve): 12 h
Onset time (sciatic nerve): 1 min

CCCC[N+]1(CCCCN2CCCCC2C(=O)Nc2ccc(F)cc2)CCCCC1C(=O)Nc1c(C)cccc1C (stereo not drawn) [Compound 7]
Onset time [1, 2]: 2 min
Duration [1, 3]: 52 h
Duration (sciatic nerve): 30 h
Onset time (sciatic nerve): 1 min

CCCC[N+]1(CCCCN2CCCCC2C(=O)Nc2ccc(C)cc2)CCC[C@@H]1C(=O)Nc1c(C)cc(C)cc1C (stereo partly drawn) [Compound 28]
Duration (sciatic nerve): 12 to 24 h
Onset time (sciatic nerve): 1 min
